Patent US20100075907A1, “NEUROMEDIN U RECEPTOR AGONISTS AND USES THEREOF” (priority 2006, published 2010)
Non-standard residues stand in square brackets, D forms with d. Residues, ends and D or L forms follow the SMILES beside them. No end group written: not given here. *: point of attachment. Succinimide(1-Et,3-yl) = CCN1C(=O)CC(*)C1=O; hArg = N=C(N)NCCCC[C@H](N)C(=O)O

What was measured:
NMUR1 and NMUR2 = assay: NMU receptor subtype selectivity (EC50 ratios human NMUR2/human NMUR1); assay type: cell-based; details: NMUR1 vs NMUR2
Method: The present invention provides neuromedin U receptor agonist. The neuromedin U receptor agonist described herein act at NMU receptors, bind the NMU receptors, and stimulate NMU receptor activity. In one aspect, the neuromedin U receptor agonists are specific for one receptor subtype, wherein such specificity is defined as having an IC50 values that is less than about 200 nM in the corresponding NMUR1 or NMUR2 receptor binding assay. Selectivity is based upon functional activity or EC50 ratios at human NMUR2/human NMUR1 for NMUR1-selective peptides and at human NMUR1/human NMUR2 for NMUR2-selective peptides. Further, the selective neuromedin U receptor agonists described herein range from about 21 to 909-fold selective for NMUR1 and from about 2 to 200-fold selective for NMUR2. In another aspect, the neuromedin U receptor agonists are capable of binding and stimulating both the NMUR1 and NMUR2 receptors and have been derivatized to enable the neuromedin U receptor agonists to cross the blood-brain bather and interact with NMU receptors in the brain. The neuromedin U receptor agonists can be used therapeutically and as research tools.

diet-induced obese mice = assay: Feeding study in diet-induced obese mice (food intake, body weight); assay type: in vivo
Outline: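 Male DIO mice (Nmur1−/−, Nmur2−/− or double-knockout lines, C57BL/6 or mixed background) on 60% kcal high-fat diet, dosed i.p. or s.c. ~30 min before dark onset. Food intake measured at 2, 18, 42, 66 and 90 h after dark onset; body weight at 18, 42, 66 and 90 h.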

rat NMUR1-TTG = target: T1, rat NMUR1-TTG (Rattus norvegicus, UniProt Q9JJI5); assay: FLIPR calcium mobilization assay, rat NMUR1-TTG; assay type: cell-based; design: expressed in transfected cells; host or cells: FLP-In CHO or HEK-293 FLP-In cells (pcDNA5)
T1 sequence (Q9JJI5 1-425): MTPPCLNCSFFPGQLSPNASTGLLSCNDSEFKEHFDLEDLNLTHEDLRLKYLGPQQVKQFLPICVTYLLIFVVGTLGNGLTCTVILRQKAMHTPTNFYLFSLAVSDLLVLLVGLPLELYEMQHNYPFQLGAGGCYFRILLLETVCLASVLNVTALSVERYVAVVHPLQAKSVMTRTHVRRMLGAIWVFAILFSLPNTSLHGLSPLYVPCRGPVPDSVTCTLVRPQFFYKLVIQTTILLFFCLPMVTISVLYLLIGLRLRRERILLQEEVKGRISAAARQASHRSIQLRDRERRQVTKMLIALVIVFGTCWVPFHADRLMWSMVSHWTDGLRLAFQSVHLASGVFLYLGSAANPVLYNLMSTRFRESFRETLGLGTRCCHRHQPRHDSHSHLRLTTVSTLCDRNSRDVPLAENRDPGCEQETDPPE
Excerpt: Human, mouse or rat cDNAs encoding NMUR1 or NMUR2 (as described in Howard et al. Nature 406: 70-74 (2000) were subcloned in pcDNA5 (Invitrogen) and transfected into FLP-In CHO cells and HEK-293 FLP-In cells purchased from Invitrogen (Carlsbad, Calif.) using lipofectamine (Invitrogen). The Flp-In system allows integration and expression of a particular gene of interest at a specific genomic location utilizing the Flp recombinase from yeast. The transfected cells were selected by growth in medium containing 200 μg/mL hygromycin (Invitrogen). Populations were frozen at early passage numbers, and these stocks were used for further studies. Stable clones that expressed the mRNAs were identified functionally by FLIPR as well as by RT-PCR. […] Two different rodent NMUR1 cell lines were thus generated: one with the codon as predicted from the genomic databases and another cell line with an engineered methionine (ATG) as the start codon. Additionally, stable cell lines expressing the human receptors were generated in HEK-293/aeq17 cells which stably express the aequorin gene under the CMV promoter. The human NMUR2 cDNA was cloned into pcDNA3.1 and human NMUR1 was subcloned into pIRES-puro (Clontech, Mountain View, Calif.), after transfection cells were selected in media containing G418 and either hygromycin (NMUR2) or puromycin (NMUR1).
The NMU receptors signal primarily through Gαq/11 proteins; therefore calcium mobilization assays can be utilized for functional activity.
Stable cell lines expressing human and or rodent NMUR1 or human NMUR2 receptors were plated at a density of 12,000 cells per well overnight on poly-lysine coated 384-well black-walled plates. The following day, the media was removed from the plates and the cells were subsequently loaded with Fluo-3 (Molecular Probes), a calcium sensitive dye, diluted in FLIPR buffer (1× Hank's buffered saline containing 20 mM HEPES, 0.1% BSA, 2.5 mM probenecid (Sigma) and 1.6 mM TR40). All reagents are from Invitrogen unless otherwise noted. Peptide stocks were resuspended in DMSO at a stock concentration of 2 mM and diluted in FLIPR buffer on the day of the experiment to a 4 μM working stock solution.
After a 90 minute incubation at room-temperature, cell plates were loaded onto a FLIPR (Molecular Devices) to monitor cellular fluorescence (excitation=488 nm; emission=540 nm) before and after compound/peptide addition. Eight to twelve point dose responses were tested on NMUR-expressing cell lines using FLIPR with 1 μM peptide as the highest dose. The response after peptide addition was taken as the maximum fluorescence units minus the fluorescence immediately prior to stimulation for each well. EC50 values were calculated using GraphPad Prism (San Diego, Calif.) software.
In vitro responses of Neuromedin U receptor agonists (NMU1 to NMU25) in the FLIPR assay for human (Table 3), mouse (Table 4) and rat (Table 5) NMUR1 and NMUR2. EC50s are reported in nM values. Percent activity refers to the maximum response at 1 μM compared to the hNMU-25 response at the same concentration. NT=not tested.

[1] = maximum response at 1 μM compared to hNMU-25, rat NMUR1-TTG

Question: Which receptor subtype specificity (NMUR1 and NMUR2) does the source give for CC(C)C[C@H](NC(=O)[C@H](Cc1c[nH]c2ccccc12)NC(=O)[C@H](Cc1ccccc1)NC(=O)CNC(=O)[C@H](CCCNC(=N)N)NC(=O)[C@H](CO)NC(=O)[C@H](CCC(N)=O)NC(=O)[C@H](CO)NC(=O)[C@H](C)NC(=O)[C@H](Cc1ccccc1)NC(=O)[C@@H]1CCCN1C(=O)[C@H](CO)NC(=O)[C@H](CCC(N)=O)NC(=O)[C@H](Cc1ccccc1)NC(=O)[C@H](CCC(=O)O)NC(=O)[C@H](CCC(=O)O)NC(=O)[C@H](CC(=O)O)NC(=O)[C@@H](NC(=O)[C@H](CCCNC(=N)N)NC(=O)[C@@H](N)Cc1ccccc1)C(C)C)C(=O)N[C@@H](Cc1ccccc1)C(=O)N[C@@H](CCCNC(=N)N)C(=O)N1CCC[C@H]1C(=O)N[C@@H](CCCCNC(=N)N)C(=O)N[C@@H](CC(N)=O)C(N)=O [Agonist O] (H-FRVDEEFQSPFASQSRGFWLFRP[hArg]N-NH2; N-terminus assumed) here?
Answer: bispecific

Question: CC(C)C[C@H](NC(=O)[C@H](Cc1c[nH]c2ccccc12)NC(=O)[C@H](Cc1ccccc1)NC(=O)CNC(=O)[C@H](CCCNC(=N)N)NC(=O)[C@H](CO)NC(=O)[C@H](CCC(N)=O)NC(=O)[C@H](CO)NC(=O)[C@H](C)NC(=O)[C@H](Cc1ccccc1)NC(=O)[C@@H]1CCCN1C(=O)[C@H](CO)NC(=O)[C@H](CCC(N)=O)NC(=O)[C@H](Cc1ccccc1)NC(=O)[C@H](CCC(=O)O)NC(=O)[C@H](CCC(=O)O)NC(=O)[C@H](CC(=O)O)NC(=O)[C@@H](NC(=O)[C@H](CCCNC(=N)N)NC(=O)[C@@H](N)Cc1ccccc1)C(C)C)C(=O)N[C@@H](Cc1ccccc1)C(=O)N[C@@H](CCCNC(=N)N)C(=O)N[C@@H](C)C(=O)N[C@@H](CCCCNC(=N)N)C(=O)N[C@@H](CC(N)=O)C(N)=O [Agonist P] (H-FRVDEEFQSPFASQSRGFWLFRA[hArg]N-NH2; N-terminus assumed) was tested. Which receptor subtype specificity (NMUR1 and NMUR2) did it give?
Answer: bispecific

Question: CCN1C(=O)CC(SC[C@H](NC(C)=O)C(=O)N[C@@H](Cc2ccccc2)C(=O)N[C@@H](CCCNC(=N)N)C(=O)N[C@H](C(=O)N[C@@H](CC(=O)O)C(=O)N[C@@H](CCC(=O)O)C(=O)N[C@@H](CCC(=O)O)C(=O)N[C@@H](Cc2ccccc2)C(=O)N[C@@H](CCC(N)=O)C(=O)N[C@@H](CO)C(=O)N2CCC[C@H]2C(=O)N[C@@H](Cc2ccccc2)C(=O)N[C@@H](C)C(=O)N[C@@H](CO)C(=O)N[C@@H](CCC(N)=O)C(=O)N[C@@H](CO)C(=O)N[C@@H](CCCNC(=N)N)C(=O)NCC(=O)N[C@@H](Cc2ccc(O)cc2)C(=O)N[C@@H](Cc2ccccc2)C(=O)N[C@H](C)C(=O)N[C@@H](Cc2c[nH]c3ccccc23)C(=O)N[C@@H](CCCNC(=N)N)C(=O)N2CCC[C@H]2C(=O)N[C@@H](CCCNC(=N)N)C(=O)N[C@@H](CC(N)=O)C(N)=O)C(C)C)C1=O (stereo partly drawn) [NMU13] (Ac-C(Succinimide(1-Et,3-yl))FRVDEEFQSPFASQSRGYF[dA]WRPRN-NH2) was tested. Which food intake (diet-induced obese mice; acute peripheral administration, wild-type mice) did it give?
Answer: significantly reduced food intake

Question: What about the “% Activity” value (rat NMUR1-TTG; functional, rat R1-TTG, relative to native hNMU responses) of the same molecule?
Answer: 94%

Question: And the “% Activity” value (rat NMUR1-TTG; [1])?
Answer: 94.6%

Question: With “Ac-C2FQSPFASQSRGYFLFRPRN-CONH2 ({Ac-C(PEG 40 kDa)}-FQSPFASQSRGYFLFRPRN-NH2; not fully specified; printed as Ac-C2FQSPFASQSRGYFLFRPRN-CONH2) [NMU20, C2 = Cys(PEG)240 kDa]” as the molecule, how does the “extension of serum half-life by PEGylation” value (diet-induced obese mice) read?
Answer: three days

Question: What about the “Body weight (BW) change (in grams) {relative to vehicle} Day 1” value (diet-induced obese mice; 10 mg/kg, Day 1) of the same molecule?
Answer: −2.2 grams

Question: And the “% Food intake (FI) reductions Day 1” value (diet-induced obese mice; 10 mg/kg, Day 1, based on vehicle responses)?
Answer: 67%

Question: What about the “Body weight (BW) change (in grams) {relative to vehicle} Day 2” value (diet-induced obese mice; 10 mg/kg, Day 2) of the same molecule?
Answer: −1.1 grams

Question: What about the “% Food intake (FI) reductions Day 2” value (diet-induced obese mice; 10 mg/kg, Day 2, based on vehicle responses) of the same molecule?
Answer: 65%

Question: What about the “Body weight (BW) change (in grams) {relative to vehicle} Day 3” value (diet-induced obese mice; 10 mg/kg, Day 3) of the same molecule?
Answer: +0.3 grams

Question: What about the “% Food intake (FI) reductions Day 3” value (diet-induced obese mice; 10 mg/kg, Day 3, based on vehicle responses) of the same molecule?
Answer: 23%

Question: What about the EC50 (rat NMUR1-TTG; FLIPR, rat NMUR1-TTG) of the same molecule?
Answer: 24.4 nM

Question: What about the “% Activity” value (rat NMUR1-TTG; [1]) of the same molecule?
Answer: 93.8%

Question: FALFRPRN-NH2 [Agonist N] was tested. Which receptor subtype specificity (NMUR1 and NMUR2) did it give?
Answer: bispecific
